Data on seven compounds can be found in US20100048692A1, “Naphthofuranone Derivatives as Specific Inhibitors of Thymidylate Synthases” (priority 2006, published 2010).

As a reminder, the pKi is the Ki on a negative log10 scale, so that one unit is a factor of ten. A lower pKi goes with a high Ki.

pKi: −log10 of the molar value. Values after ≈ are worked out from the molar mass of the structure shown. A value given as a limit tells only on which side of the number the result lay.

The target of assay [1] is T1, hDHFR (human DHFR) (Homo sapiens, UniProt P00374).
T1 construct: made in house; host or cells: Escherichia coli chi2913
T1 sequence (P00374 1-187): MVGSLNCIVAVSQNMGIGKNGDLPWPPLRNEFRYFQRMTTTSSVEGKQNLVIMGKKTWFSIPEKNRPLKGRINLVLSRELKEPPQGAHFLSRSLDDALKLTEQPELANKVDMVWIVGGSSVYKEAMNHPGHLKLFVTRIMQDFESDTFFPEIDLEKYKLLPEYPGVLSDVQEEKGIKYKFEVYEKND
Nature of the assay: Enzymatic inhibition assay (Ki), human DHFR. In kind it is biochemical. On the procedure:
The purified enzyme has been stored at −80° C. […] The enzymatic assays for the measurements of the Km consist in measuring the initial rate of the enzymatic reaction in presence of variable and increasing substrate (FAH2).
(§1) Enzymatic inhibition assay: The compounds hereby analyzed were previously dissolved in DMSO. The inhibitor concentrated solution was obtained by dissolving 2 mg of compound in 1 mL of DMSO. Next, solutions thus obtained were successively preserved and the […], and the stability of their working conditions was constantly controlled. The spectrophotometrical determinations of enzymatic reaction kinetics were carried out using a Parkin-Elmer λ16 spectrophotometer, provided with a multicell system which was maintained at the constant temperature of 20 C. degrees, with a HAAAKE F3C thermostatted bath.
The measurement of Ki (inhibition constant) was obtained through enzymatic inhibition essays carried out under stationary conditions. […] The enzyme is added finally. The assay aiming at controlling TS enzymatic activity is repeated at regular intervals. […] In this case inhibition constants were obtained through a non-linear regression analysis, which utilized of the least squared method, of the enzymatic reaction initial speeds relating to the inhibitor concentration; equation was the following: […]

Assay [2] deals with CnTS (Cryptococcus neoformans, UniProt P0CS12). The class given is biochemical. As for the experimental part:
as §1
The elaboration of the data was carried out using Kaleidagraph 3.0; this software was provided by Macintosh (Adelbeck, Software Reading, Pa., 1989, version 2.3). The measurement of Ki (inhibition constant) was obtained through enzymatic inhibition essays carried out under stationary conditions. […] The enzyme is added finally. The assay aiming at controlling TS enzymatic activity is repeated at regular intervals. […] In this case inhibition constants were obtained through a non-linear regression analysis, which utilized of the least squared method, of the enzymatic reaction initial speeds relating to the inhibitor concentration; equation was the following:
Vi=Vmax*(1−([I])/([I]+(Ki*(1+([s]/Km))))), where
Vi=enzymatic reaction initial velocity, Vmax=enzymatic reaction maximum velocity, I=inhibitor concentration, Ki=inhibition constant, S=substrate concentration, Km=Michaelis-Menten.
Using this equation it is possible to obtain Ki making use of a minimal amount of experimental data. The specificity index relating to each of the compounds (Bio. Med. Chem. ) refers to the relation between KihTS/Kiother enzyme.

Assay [3] deals with Streptococcus 42. As to the kind of experiment: Sensitivity assay (MIC). In kind it is cell-based. As for the experimental part:
(§2) The anti-bacterial properties of the compounds hereby described were evaluated towards: a) bacterial native strains comprehending gram-positive and gram-negative bacteria. The bacterial cultures were obtained by sowing bacteria in Mueller-Hinton (Difco) stirring at 37 C for 24 hours, and were then diluted, after reaching an appreciable level of exponential growth, using a growth plot in order to get a […] CFU/mL inoculum. Following, the obtained cultures were put in contact with growing concentrations of the present compound. Furthermore, it was measured the minimal concentration inhibiting the growth (MIC) of each of these compounds. In Table 2 several MIC obtained by different bacterial pathogenic strains have been reported that were treated using compounds of the present invention and were also compared with those obtained through ciprofluoxacin (cpx).

Assay [4] deals with Listeria monocytogenes 5. As to the kind of experiment: Sensitivity assay (MIC). In kind it is cell-based. As for the experimental part:
as §2

Assay [5] deals with Listeria monocytogenes 4. Nature of the assay: Sensitivity assay (MIC). In kind it is cell-based. On the procedure:
as §2

The test system of assay [6] is Staphylococcus aureus K28. As to the kind of experiment: Sensitivity assay (MIC). The class given is cell-based. On the procedure:
as §2

Assay [7] deals with Staphylococcus aureus 343. Nature of the assay: Sensitivity assay (MIC). The class given is cell-based. On the procedure: as §2
Assay [8] relates to Listeria monocytogenes ATCC 4428. Nature of the assay: Sensitivity assay (MIC). In kind it is cell-based. On the procedure: as §2
Assay [9] deals with Citrobacter 224. As to the kind of experiment: Sensitivity assay (MIC). The class given is cell-based. As for the experimental part:
as §2

In assay [10] the test system is Staphylococcus haemolyticus ATCC 2997. As to the kind of experiment: Sensitivity assay (MIC). In kind it is cell-based. On the procedure: as §2
For assay [11], the system named is Listeria monocytogenes 6. As to the kind of experiment: Sensitivity assay (MIC). The class given is cell-based. As for the experimental part:
as §2

The subject of assay [12] is Listeria monocytogenes 8. As to the kind of experiment: Sensitivity assay (MIC). The class given is cell-based. On the procedure: as §2
Assay [13] relates to Escherichia coli 256. Nature of the assay: Sensitivity assay (MIC). In kind it is cell-based. On the procedure: as §2
Assay [14] has as its system Enterococcus faecalis ATCCC 29212. Nature of the assay: Sensitivity assay (MIC). In kind it is cell-based. On the procedure:
as §2

The test system of assay [15] is Staphylococcus aureus ATCC29213. As to the kind of experiment: Sensitivity assay (MIC). In kind it is cell-based. On the procedure:
as §2

The test system of assay [16] is Escherichia coli 292. Nature of the assay: Sensitivity assay (MIC). In kind it is cell-based. On the procedure:
as §2

In assay [17] the test system is Listeria monocytogenes 7. Nature of the assay: Sensitivity assay (MIC). In kind it is cell-based. On the procedure: as §2
In assay [18] the test system is Staphylococcus saprophiticus ATCC15305. As to the kind of experiment: Sensitivity assay (MIC). The class given is cell-based. On the procedure:
as §2

Assay [19] concerns Listeria monocytogenes 3. As to the kind of experiment: Sensitivity assay (MIC). The class given is cell-based. On the procedure: as §2
The subject of assay [20] is Staphylococcus aureus 341. As to the kind of experiment: Sensitivity assay (MIC). The class given is cell-based. As for the experimental part:
as §2

Chain of CnTS (P0CS12 whole entry): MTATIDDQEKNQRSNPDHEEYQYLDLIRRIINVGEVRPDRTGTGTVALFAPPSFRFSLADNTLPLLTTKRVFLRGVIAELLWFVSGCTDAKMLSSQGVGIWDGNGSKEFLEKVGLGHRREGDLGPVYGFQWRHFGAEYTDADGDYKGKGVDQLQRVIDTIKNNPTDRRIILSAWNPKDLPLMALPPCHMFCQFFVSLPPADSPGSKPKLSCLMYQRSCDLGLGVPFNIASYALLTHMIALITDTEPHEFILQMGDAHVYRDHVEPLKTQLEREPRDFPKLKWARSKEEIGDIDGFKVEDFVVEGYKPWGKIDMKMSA

As for `Cc1cc(O)c(C(C)C)cc1C1(c2cc(C(C)C)c(O)cc2C)OC(=O)c2c1ccc1ccccc21` [Compound 2, 33,3-Bis-(4-hydroxyl-5-isopropyl-2-methylphenyl)-3H-naphtho(1,2-c)furan-1-one], in assay [1], the pKi is 4.46 and the “SSI hTS vs hDHFR” value turned out to be 88. Further, in assay [2], the pKi was 6.22.
Regarding `O=C1OC(c2ccc(O)c(I)c2)(c2ccc(O)c(I)c2)c2ccc3ccccc3c21` [Compound 3], in assay [1], the pKi was 5.41 and the “SSI hTS vs hDHFR” value was found to be 0.01. This compound also had a pKi in [2] of 5.35.
Turning to `O=C1OC(c2ccc(O)c(Br)c2)(c2ccc(O)c(Br)c2)c2ccc3ccccc3c21` [Compound 4], in assay [1], the pKi is 4.48 and the “SSI hTS vs hDHFR” value amounted to 0.2. Besides, the pKi in assay [2] was 5.57.
In the case of `O=C1OC(c2ccc(O)cc2)(c2ccc(O)cc2)c2ccc3ccccc3c21` [Compound 6, 3,3-Bis-(4-hydroxyphenyl)-1H-naphtho[1,2-c]furan-3-one], the negative-log Ki (pKi) in assay [1] was 4.89.
Consider `O=C1OC(c2ccc(O)c(Cl)c2)(c2ccc(O)c(Cl)c2)c2ccc3ccccc3c21` [Compound 7, 3,3-Bis-(3-chlorine-4-hydroxyphenyl)1H-naphtho(1,2-c)furan-3-one], for which the “SSI hTS vs hDHFR” value in [1] was determined as 1. In addition, the pKi in [2] is 5.09.
For the compound `O=C1OC(c2ccc(O)c(F)c2)(c2ccc(O)c(F)c2)c2ccc3ccccc3c21` [Compound 8, 3,3-Bis-(3-fluorine-4-hydroxyphenyl)1H-naphtho(1,2-c)furan-3-one], the negative-log Ki (pKi) in [1] is 3.96; in [2], 5.46. Also, the “SSI hTS vs hDHFR” value in assay [1] is listed as 1. The “Minimum inhibitory concentration (MIC)” value in [3], in assay [4], in assay [5], in [6], in assay [7] and in assay [8] was 25 µg/mL (≈ 61.8 µM) throughout. The “Minimum inhibitory concentration (MIC)” value in assay [9] was over 50 µg/mL; in [10], 25 µg/mL (≈ 61.8 µM); in [11], 25 µg/mL (≈ 61.8 µM); in assay [12], 25 µg/mL (≈ 61.8 µM); in assay [13], over 50 µg/mL; in assay [14] it was 25 µg/mL (≈ 61.8 µM). Further, the “Minimum inhibitory concentration (MIC)” value in assay [15] was 25 µg/mL (≈ 61.8 µM); in [16], over 50 µg/mL; in [17], 25 µg/mL (≈ 61.8 µM); in assay [18] it was 25 µg/mL (≈ 61.8 µM); in assay [19], 25 µg/mL (≈ 61.8 µM); in assay [20], 25 µg/mL (≈ 61.8 µM).
On to `O=C(O)c1cn(C2CC2)c2cc(N3CCNCC3)c(F)cc2c1=O` [cpx, ciprofluoxacin, reference compound], for which the “Minimum inhibitory concentration (MIC)” value was over 5 µg/mL in assay [3]; 2.5 µg/mL (≈ 7.54 µM) in assay [4]; 1 µg/mL (≈ 3.02 µM) in assay [5]; 0.5 µg/mL (≈ 1.51 µM) in [6]; 0.5 µg/mL (≈ 1.51 µM) in assay [7]; 2.5 µg/mL (≈ 7.54 µM) in [8]. The “Minimum inhibitory concentration (MIC)” value was over 25 µg/mL in [9]; 2.5 µg/mL (≈ 7.54 µM) in [10]; 2.5 µg/mL (≈ 7.54 µM) in [11]; 1 µg/mL (≈ 3.02 µM) in assay [12]; over 25 µg/mL in assay [13]; 12.5 µg/mL (≈ 37.7 µM) in [14]. Also, the “Minimum inhibitory concentration (MIC)” value in assay [15] was 0.5 µg/mL (≈ 1.51 µM); in assay [16], over 25 µg/mL; in assay [17], 1 µg/mL (≈ 3.02 µM); in assay [18] it was 1 µg/mL (≈ 3.02 µM); in assay [19], 2.5 µg/mL (≈ 7.54 µM); in assay [20] it was 1.2 µg/mL (≈ 3.62 µM).
